Measured values reported in the NIST ThermoML archive (doi:10.1016/j.fluid.2019.05.006).
± gives the expanded uncertainty stated by the source.

Conditions: 101.33 kPa, Liquid, Falling or rolling sphere viscometry

viscosity (308.15 K): 84.3 ± 1.6 mPa·s
viscosity (318.15 K): 29.4 ± 0.7 mPa·s
viscosity (328.15 K): 14.3 ± 0.6 mPa·s
viscosity (338.15 K): 7.2 ± 0.3 mPa·s
Structure (SMILES): C[N+](C)(C)CCO.NCC(=O)[O-] [2-hydroxy-N,N,N-trimethylethanaminium glycinate]
